Experimental data: ChEMBL document CHEMBL5120871, “Identification of benzamides derivatives of norfloxacin as promising microRNA-21 inhibitors via repressing its transcription” (Bioorg Med Chem, 2022)
The source made the active and inactive calls. The rule behind the calls is not given here.

Legend:
microRNA 21 [1] = assay: Inhibition of wild type full length miR-21 in human HeLa cells co-expressing firefly luciferase and renilla luciferase gene assessed as fold change in Luc/Rlu by measuring relative […] intensity at 20 uM by Dual-Luciferase reporter based luminometer analysis; format: cell-based
microRNA 21 [2] = assay: Inhibition of miR-21 in human HeLa cells assessed as increase in luciferase activity measured after 48 hrs by bright Glo-luciferase reporter gene assay; format: cell-based
microRNA 21 [3] = assay: Inhibition of miR-21 maturation in human LN-229 cells assessed as reduction in pre-miR-21 expression at 30 uM measured upto 24 hrs by RT-PCR analysis relative to control; format: cell-based
microRNA 21 [4] = assay: Inhibition of miR-21 maturation in human MCF7 cells assessed as reduction in pre-miR-21 expression at 30 uM measured upto 24 hrs by RT-PCR analysis relative to control; format: cell-based
microRNA 21 [5] = assay: Inhibition of miR-21 maturation in human U87 cells assessed as reduction in pre-miR-21 expression at 30 uM measured upto 24 hrs by RT-PCR analysis relative to control; format: cell-based
microRNA 21 [6] = assay: Inhibition of miR-21 maturation in human SGC-7901 cells assessed as reduction in pre-miR-21 expression at 30 uM measured upto 24 hrs by RT-PCR analysis relative to control; format: cell-based
microRNA 21 [7] = assay: Inhibition of miR-21 maturation in human MCF7 cells assessed as reduction in pre-miR-21 expression at 5 uM incubated for 48 hrs by RT-PCR analysis relative to control; format: cell-based
microRNA 21 [8] = assay: Inhibition of miR-21 (unknown origin) maturation assessed as cleavage of pre-miR-21 at 5 uM by RT-qPCR analysis relative to control; format: nucleic-acid assay; settings: Homo sapiens
HeLa [9] = assay: Induction of apoptosis in human HeLa cells assessed as necrotic cells at 20 uM incubated for 24 hrs by annexin V-FITC and propidium iodide staining based flow cytometry (reference value: 0.08%); format: functional
HCT-116 [10] = assay: Inhibition of colony formation in human HCT-116 cells incubated for 14 days by crystal violet staining based assay; format: functional, cell-based; settings: dose 0.1-10 µM, time 14.0 day, DDE = dose-dependent effect
microRNA 21 [11] = assay: Inhibition of miR-21 in human HeLa cells assessed as upregulation of EGR1 level at 10 uM incubated for 48 hrs by RT-qPCR analysis; format: cell-based
HeLa [12] = assay: Induction of apoptosis in human HeLa cells assessed as viable cells at 10 uM incubated for 24 hrs by annexin V-FITC and propidium iodide staining based flow cytometry (reference value: 93.54%); format: functional; settings: read-out: Activity
microRNA 21 [13] = assay: Inhibition of miR-21 in human HeLa cells assessed as downregulation of pre-miR-21 level at 10 uM and measured for 24 to 48 hrs by RT-qPCR analysis; format: cell-based; settings: time 24-48 hrs
HeLa [14] = assay: Induction of apoptosis in human HeLa cells assessed as early apoptotic cells at 20 uM incubated for 24 hrs by annexin V-FITC and propidium iodide staining based flow cytometry (reference value: 4.35%); format: functional
microRNA 21 [15] = assay: Inhibition of miR-21 in human HeLa cells assessed as downregulation of ATF4 level at 10 uM incubated for 48 hrs by RT-qPCR analysis; format: cell-based
[16] = Cytotoxicity against human BEAS-2B cells assessed as reduction in cell proliferation incubated for 24 hrs by CCK-8 assay; format: toxicity, cell-based
microRNA 21 [17] = assay: Inhibition of miR-21 in human HeLa cells assessed as downregulation of ZNF251 level at 10 uM incubated for 48 hrs by RT-qPCR analysis; format: cell-based
HeLa [18] = assay: Induction of apoptosis in human HeLa cells assessed as early apoptotic cells at 10 uM incubated for 24 hrs by annexin V-FITC and propidium iodide staining based flow cytometry (reference value: 4.35%); format: functional
HeLa [19] = assay: Antiproliferative activity against human HeLa cells incubated for 24 hrs by CCK-8 assay; format: functional, cell-based
microRNA 21 [20] = assay: Inhibition of miR-21 in human HeLa cells assessed as increase in PTEN level at 10 to 20 uM incubated for 48 hrs by RT-qPCR analysis; format: cell-based; settings: dose 10-20 µM
microRNA 21 [21] = assay: Inhibition of miR-21 in human HeLa cells assessed as downregulation of pri-miR-21 level at 10 uM and measured for 24 to 48 hrs by RT-qPCR analysis; format: cell-based; settings: time 24-48 hrs
HeLa [22] = assay: Induction of apoptosis in human HeLa cells assessed as late apoptotic cells at 10 uM incubated for 24 hrs by annexin V-FITC and propidium iodide staining based flow cytometry (reference value: 2.03%); format: functional
HeLa [23] = assay: Induction of apoptosis in human HeLa cells assessed as viable cells at 20 uM incubated for 24 hrs by annexin V-FITC and propidium iodide staining based flow cytometry (reference value: 93.54%); format: functional; settings: read-out: Activity
HeLa [24] = assay: Inhibition of cell migration in human HeLa cells at 10 to 20 uM and measured after 24 hrs by crystal violet staining based transwell migration assay; format: functional; settings: dose 10-20 µM
microRNA 21 [25] = assay: Inhibition of miR-21 in human HeLa cells assessed as reduction in mature miR-21 level at 10 to 20 uM measured after 24 hrs by RT-qPCR analysis; format: cell-based; settings: dose 10-20 µM
HeLa [26] = assay: Induction of apoptosis in human HeLa cells assessed as necrotic cells at 10 uM incubated for 24 hrs by annexin V-FITC and propidium iodide staining based flow cytometry (reference value: 0.08%); format: functional
microRNA 21 [27] = assay: Inhibition of miR-21 in human HeLa cells assessed as reduction in mature miR-21 level at 10 to 20 uM measured after 48 hrs by RT-qPCR analysis relative to control; format: cell-based; settings: dose 10-20 µM
HeLa [28] = assay: Induction of apoptosis in human HeLa cells assessed as late apoptotic cells at 20 uM incubated for 24 hrs by annexin V-FITC and propidium iodide staining based flow cytometry (reference value: 2.03%); format: functional
HCT-116 [29] = assay: Antiproliferative activity against human HCT-116 cells incubated for 24 hrs by CCK-8 assay; format: functional, cell-based; settings: HCT-116, 24 h
HeLa [30] = assay: Inhibition of colony formation in human HeLa cells incubated for 14 days by crystal violet staining based assay; format: functional, cell-based; settings: dose 0.1-10 µM, time 14.0 day, DDE = dose-dependent effect
microRNA 21 [31] = assay: Inhibition of wild type full length miR-21 in human HeLa cells co-expressing firefly luciferase and renilla luciferase gene assessed as fold change in Luc/Rlu by measuring relative […] intensity at 10 uM by Dual-Luciferase reporter based luminometer analysis; format: cell-based
microRNA 21 [32] = assay: Inhibition of miR-21 in human HeLa cells assessed as upregulation of SLIT2 level at 10 uM incubated for 48 hrs by RT-qPCR analysis; format: cell-based

C#CCNC(=O)c1ccc(NC(=O)c2cn(CC)c3cc(N4CCN(CC5CC5)CC4)c(F)cc3c2=O)cc1
fold change (FC) (microRNA 21 [1]): 1.07

C#CCNC(=O)c1ccc(/N=N/c2ccccc2)cc1
fold change (FC) (microRNA 21 [1]): 1.41 | EC50 (microRNA 21 [2]): 2 µM

CCn1cc(C(=O)Nc2ccc(C(=O)NCC3CC3)cc2)c(=O)c2cc(F)c(N3CCNCC3)cc21
fold change (FC) (microRNA 21 [1]): 0.72

CCn1cc(C(=O)Nc2ccc(C(=O)NC3CCOCC3)cc2)c(=O)c2cc(F)c(N3CCNCC3)cc21
fold change (FC) (microRNA 21 [1]): 0.69

N#CC1CNC(N)NC1N (centres undefined)
inhibition (microRNA 21 [3]): 50% | inhibition (microRNA 21 [4]): 50% | inhibition (microRNA 21 [5]): 50% | inhibition (microRNA 21 [6]): 50%

CCN(CC)CCNC(=O)c1ccc(NC(=O)c2cn(CC)c3cc(N4CCNCC4)c(F)cc3c2=O)cc1
fold change (FC) (microRNA 21 [1]): 1.36

CCCCNC(=O)c1ccc(NC(=O)c2cn(CC)c3cc(N4CCNCC4)c(F)cc3c2=O)cc1
fold change (FC) (microRNA 21 [1]): 0.98

CCn1cc(C(=O)NCCN2CCCCC2)c(=O)c2cc(F)c(N3CCNCC3)cc21
fold change (FC) (microRNA 21 [1]): 0.91

C#CCNC(=O)c1ccc(NC(=O)c2cn(CC)c3cc(N4CCNCC4)c(F)cc3c2=O)cc1
fold change (FC) (microRNA 21 [1]): 1.15

CN[C@@H]1[C@H](O[C@H]2[C@H](O[C@H]3[C@H](O)[C@@H](O)[C@H](N=C(N)N)[C@@H](O)[C@@H]3N=C(N)N)O[C@@H](C)[C@]2(O)C=O)O[C@@H](CO)[C@H](O)[C@H]1O
fold change (FC) (microRNA 21 [1]): 1.1 | inhibition (microRNA 21 [7]): 80%

C#CCNC(=O)c1ccc(NC(=O)c2cn(CC)c3cc(N4CCN(Cc5ccccc5)CC4)c(F)cc3c2=O)cc1
fold change (FC) (microRNA 21 [1]): 1.47

C#CCNC(=O)c1cn(CC)c2cc(N3CCN(Cc4ccccc4)CC3)c(F)cc2c1=O
fold change (FC) (microRNA 21 [1]): 1

CCn1cc(C(=O)NC2CCN(Cc3ccccc3)CC2)c(=O)c2cc(F)c(N3CCNCC3)cc21
fold change (FC) (microRNA 21 [1]): 1.09

NC[C@H]1O[C@H](O[C@H]2[C@H](O[C@@H]3O[C@H](CSCCNC(=O)CCCCCn4cc(COCCOc5ccc6c(c5)C(=O)N(O)C(=O)C6)nn4)[C@@H](O[C@H]4O[C@H](CN)[C@@H](O)[C@H](O)[C@H]4N)[C@H]3O)[C@@H](O)[C@H](N)C[C@@H]2N)[C@H](N)[C@@H](O)[C@@H]1O
inhibition (microRNA 21 [8]): 90%

CCn1cc(C(=O)Nc2ccc(C(=O)NCCN3CCCCC3)cc2)c(=O)c2cc(F)c(N3CCNCC3)cc21
Activity (HeLa [9]): 0.58% | inhibition (HCT-116 [10]): Dde | inhibition (microRNA 21 [11]): Active | viability at 10 µM (HeLa [12]): 91.8% | inhibition (microRNA 21 [13]): Active | Activity (HeLa [14]): 10.67% | inhibition (microRNA 21 [15]): Active | fold change (FC) (microRNA 21 [1]): 2.01 | IC50 at 24 h [16]: > 100 µM | inhibition (microRNA 21 [17]): Active | Activity (HeLa [18]): 5.74% | IC50 (HeLa [19]): 5.5 µM | inhibition (microRNA 21 [20]): Active | inhibition (microRNA 21 [21]): Active | Activity (HeLa [22]): 2.23% | viability at 20 µM (HeLa [23]): 84.6% | Activity (HeLa [24]): Active | inhibition (microRNA 21 [25]): Active | Activity (HeLa [26]): 0.24% | inhibition (microRNA 21 [27]): Active | Activity (HeLa [28]): 4.18% | IC50 (HCT-116 [29]): 2.8 µM | inhibition (HeLa [30]): Dde | fold change (FC) (microRNA 21 [31]): 1.42 | inhibition (microRNA 21 [32]): Active

CCn1cc(C(=O)Nc2ccc(F)cc2)c(=O)c2cc(F)c(N3CCN(Cc4ccccc4)CC3)cc21
fold change (FC) (microRNA 21 [1]): 1.63 | IC50 (HeLa [19]): > 100 µM | IC50 (HCT-116 [29]): > 100 µM

CCn1cc(C(=O)Nc2ccc(C(=O)NC(C)C)cc2)c(=O)c2cc(F)c(N3CCNCC3)cc21
fold change (FC) (microRNA 21 [1]): 1.8 | IC50 (HeLa [19]): > 100 µM

CCn1cc(C(=O)Nc2ccccc2)c(=O)c2cc(F)c(N3CCN(Cc4ccccc4)CC3)cc21
fold change (FC) (microRNA 21 [1]): 1.24

CCn1cc(C(=O)N2CCCCC2)c(=O)c2cc(F)c(N3CCN(Cc4ccccc4)CC3)cc21
fold change (FC) (microRNA 21 [1]): 1.12

C#CCNC(=O)c1ccc(NC(=O)c2ccccc2Br)cc1
fold change (FC) (microRNA 21 [1]): 1.64

CCn1cc(C(=O)O)c(=O)c2cc(F)c(N3CCNCC3)cc21
fold change (FC) (microRNA 21 [1]): 1.08

C#CCNC(=O)c1ccc(NC(=O)c2cn(CC)c3cc(N4CCN(C(=O)CC56CC7CC(CC(C7)C5)C6)CC4)c(F)cc3c2=O)cc1
fold change (FC) (microRNA 21 [1]): 0.98

CC[C@@]1(O)C(=O)OCc2c1cc1n(c2=O)Cc2cc3cc(O)ccc3nc2-1 [HYDROXYCAMPTOTHECIN]
IC50 (HeLa [19]): 0.06 µM | IC50 (HCT-116 [29]): 0.05 µM

CCn1cc(C(=O)NCCN2CCOCC2)c(=O)c2cc(F)c(N3CCNCC3)cc21
fold change (FC) (microRNA 21 [1]): 0.57

CCn1cc(C(=O)Nc2ccc(C(=O)NCC(C)C)cc2)c(=O)c2cc(F)c(N3CCNCC3)cc21
fold change (FC) (microRNA 21 [1]): 1.92 | IC50 (HeLa [19]): 13.2 µM
